Laboratory results reported in publication PMC10483858 (Molecular Cancer, 2023).

Experiments:
[1] = tested on: hPD-1/mPD-L1 immune checkpoint (Jurkat-ECs with B16-F10/TCRAct cells); conditions: ref [12]; cited from earlier work
Experimental: To evaluate the bioactivity of the pAC65 peptide, cell-based immune checkpoint blockade assays, T-cell activation (TCA) assay, and a viability assay were performed.

[2] = tested on: hPD-1/hPD-L1 immune checkpoint (Jurkat-ECs with CHO/TCRAct/PD-L1 cells); assay: Immune checkpoint blockade (ICB) assay, hPD-1/hPD-L1 setup; assay type: cell-based, human; conditions: for blockade of hPD-1/hPD-L1, restored activation of Jurkat-ECs (in words): 24-hour incubation, in parallel to hPD-1/mPD-L1 assay, Fig. 2C
Experimental: (§1) The peptide was tested along with three therapeutic antibodies, atezolizumab, avelumab, and durvalumab.
(§2) Data points represent mean ± SD values from 4–6 independent experiments. […] Triton X-100-treated cells and cells without the addition of a Redox Dye were used as baseline controls. […] In the assay, three antibodies (atezo. – atezolizumab, ave. – avelumab, durva. – durvalumab) and the peptide pAC65 were used. […] The graphs show fractions of positive cells and represent cumulative data from 3–4 donors.
These cell lines were cultured in RPMI 1640 medium (Biowest) supplemented with 10% fetal bovine serum (FBS, Biowest) and […] L-glutamine (Biowest). The selection antibiotics: G418 (250 μg/mL, InvivoGen) and Hygromycin B Gold (50 μg/mL, InvivoGen) were also added to the culture medium as per application.
The assay was performed according to the manufacturer’s protocol (Promega). […] The dilutions of monoclonal antibodies were prepared in the assay buffer. Followed by a 6-hour (routinely) or 24-hour (for testing bioactivity in parallel to the hPD-1/mPD-L1 ICB assay) incubation at 37°C and 5% CO2, and an additional 20 min of incubation with the luminescence reagent (Bio-Glo™ Luciferase Assay System, Promega) at room temperature, activation of Jurkat ECs, reflected by luciferase activity, was monitored by luminescence measurements on a Spark microplate reader (Tecan). […] Data points represent mean ± SD values from four to eight independent experiments. EC50 values as half-maximal effective concentrations were calculated from the Hill curve fitting to the experimental data using Origin Pro 2020 software (OriginLab).

[3] = tested on: PD-L1/CD80 and PD-1/PD-L1 pathways; conditions: ref [14]; cited from earlier work
[4] = tested on: hPD-1/mPD-L1 immune checkpoint (Jurkat-ECs with B16-F10/TCRAct cells); assay: Immune checkpoint blockade (ICB) assay, hPD-1/mPD-L1 setup; assay type: cell-based, human (hPD-1); conditions: B16-F10/TCRAct cells treated with 20 ng/ml mouse IFN-γ for 48 h; 24 h co-culture, Fig. 2D; three independent experiments
Experimental: as §1, §2
Mouse skin melanoma B16-F10 cell line was purchased from the American Type Culture Collection (ATCC) and cultured in RPMI 1640 medium (Biowest) supplemented with 10% fetal bovine serum (FBS, Biowest) and […] L-glutamine (Biowest). The generation of the B16-F10 cells overexpressing TCR-Activator (maAPCs) clone 3A5 was described in our previous work (Magiera-Mularz et al., 2021). […]
B16-F10/TCRAct cells (maAPCs) were seeded on 96-well white bottom plates at the density of 2,000 cells/well and treated with 20 ng/ml of mouse recombinant IFN-γ (Thermo Fisher Scientific) for 48 hours before the ICB assay. […] After 24 hours (37°C, 5% CO2) and 20 min of additional incubation with the luminescence reagent (Bio-Glo™ Luciferase Assay System, Promega) at room temperature, activation of Jurkat ECs was monitored by luminescence measurements on a Spark microplate reader (Tecan). […]

Compound	specificity towards hPD-L1 / failure to target mouse PD-L1 (previous studies) [1]	blockade of hPD-1/hPD-L1, restored activation of Jurkat-ECs (in words) [2]	EC50 ([2]; luciferase luminescence, 6-hour incubation (routinely), 37°C, 5% CO2, 0.1% DMSO (pAC65), Hill fit, 4–6 independent experiments, read-out: EC50, activation of Jurkat-ECs)	blocking of both PD-L1/CD80 and PD-1/PD-L1 pathways [3]	blockade of hPD-1/mPD-L1, restored activation of Jurkat-ECs (in words) [4]
Cc1cc(CN[C@H](CO)C(=O)O)c(OCc2cccc(C#N)c2)cc1OCc1cccc(-c2ccc3c(c2)OCCO3)c1C [BMS-1001]	specificity towards the hPD-L1 protein				
Cc1c(COc2cc(OCc3cccc(C#N)c3)c(CN3C[C@H](O)C[C@@H]3C(=O)O)cc2Cl)cccc1-c1ccc2c(c1)OCCO2 [BMS-1166]	specificity towards the hPD-L1 protein				
atezolizumab: therapeutic PD-L1-blocking monoclonal antibody (Selleckchem)		efficiently blocked the hPD-1/hPD-L1 immune checkpoint	140 pM	Blocking of both PD-L1/CD80 and PD-1/PD-L1 pathways has also been documented	
avelumab: therapeutic PD-L1-blocking monoclonal antibody (MedChemExpress)		restored the activation of Jurkat-ECs blocked with either the hPD-L1-expressing or mPD-L1 expressing cells		Blocking of both PD-L1/CD80 and PD-1/PD-L1 pathways has also been documented	restored the activation of Jurkat-ECs blocked with either the hPD-L1-expressing or mPD-L1 expressing cells
durvalumab: therapeutic PD-L1-blocking monoclonal antibody (Selleckchem)		efficiently blocked the hPD-1/hPD-L1 immune checkpoint		Blocking of both PD-L1/CD80 and PD-1/PD-L1 pathways has also been documented	atezolizumab but not durvalumab was able to block the hPD-1/mPD-L1 immune checkpoint
